A short description of data set [1]: Human plasma half-life assay. It counts as in vitro ADME. To be noted: 37° C., LC-MS, read-out: Human Plasma T½ (converted). How it is done: (§1) B. Human and Rat Plasma Half-Life Assay
(§2) 50 μL was removed at various times, like at 0, 1, 2, 3, 4, 8, 24, 32, 48, 56, 72 hours, mixed with 5 μL formic acid and 150 μL acetonitrile in a microcentrifuge tube, vertexed, and centrifuged for 10 minutes at 10K rpm. The supernatant was transferred to an injection vial and analyzed by LC-MS. The LC-MS system consisted of an API4000 mass spectrometer with an ESI probe. Positive ion mode and full scan detection were used. HPLC separation was carried out on a Luna 3μ C8 (2), 2×30 mm column with a gradient from 90% A to 90% B in 10 minutes at a flow rate of 0.3 ml/min. Buffer A was 1% formic acid in water and buffer B was 1% formic acid acetonitrile.

A short description of data set [2]: Rat plasma half-life assay. It counts as in vitro ADME. The following applies: 37° C., LC-MS, read-out: Rat Plasma T½ (converted). How it is done: as §1, §2

Non-standard residues stand in square brackets, D forms with d. No end group written: not given here. *: point of attachment. Myristoyl = CCCCCCCCCCCCCC(=O)*; 12Ado = NCCCCCCCCCCCC(=O)O; Ac6c = NC1(C(=O)O)CCCCC1; Nle = CCCC[C@H](N)C(=O)O; Orn = NCCC[C@H](N)C(=O)O; Ac5c = NC1(C(=O)O)CCCC1; Aib = CC(C)(N)C(=O)O

Turning to `CCCCCCCCCCCC(=O)NCCCC[C@H](NC(=O)[C@H](CCC(N)=O)NC(=O)[C@@H](NC(=O)[C@@H](NC(=O)[C@H](CC(N)=O)NC(=O)[C@H](Cc1c[nH]cn1)NC(=O)[C@H](CCCCN)NC(=O)[C@H](Cc1c[nH]c2ccccc12)NC(=O)[C@H](CC(=O)O)NC(=O)[C@H](CC(N)=O)NC(=O)[C@H](CCCCN)NC(=O)[C@H](CCCCN)NC(=O)CNC(=O)[C@H](CCCCN)NC(=O)[C@H](CCC(N)=O)NC(=O)[C@H](C)NC(=O)[C@H](CC(C)C)NC(=O)[C@H](CC(C)C)NC(=O)[C@H](Cc1c[nH]c2ccccc12)NC(=O)[C@H](CC(N)=O)NC(=O)[C@@H](NC(=O)[C@H](Cc1ccccc1)NC(=O)[C@H](CC(=O)O)NC(=O)[C@H](CCC(N)=O)NC(=O)[C@H](CCC(N)=O)NC(=O)[C@H](Cc1c[nH]cn1)NC(=O)[C@@H](NC(=O)[C@H](CCCCN)NC(=O)[C@H](CC(=O)O)NC(=O)[C@H](CCSC)NC(=O)[C@H](C)NC(=O)[C@@H](NC(=O)C1(NC(=O)[C@H](Cc2ccc(O)cc2)NC(=O)[C@H](CC(=O)O)NC(=O)[C@H](CO)NC(=O)[C@@H](NC(=O)[C@H](Cc2ccccc2)NC(=O)[C@@H](NC(=O)CNC(=O)[C@H](CCC(=O)O)NC(=O)[C@H](C)NC(=O)[C@@H](N)Cc2ccc(O)cc2)[C@@H](C)O)[C@@H](C)CC)CCCC1)[C@@H](C)CC)[C@@H](C)CC)C(C)C)[C@@H](C)CC)[C@@H](C)O)C(=O)O` [Example 36, [A5c^11, Lys^43(N—C(O)—(CH2)10—CH3)]hGIP(1-43)-OH], the half-life at 0.1 mg/ml is 14.8 h in data set [1] and 53.3 h in data set [2].
As for `CCCCCCCCCCCCCCCC(=O)NCCCC[C@H](NC(=O)[C@H](CCC(N)=O)NC(=O)[C@@H](NC(=O)[C@@H](NC(=O)[C@H](CC(N)=O)NC(=O)[C@H](Cc1c[nH]cn1)NC(=O)[C@H](CCCCN)NC(=O)[C@H](Cc1c[nH]c2ccccc12)NC(=O)[C@H](CC(=O)O)NC(=O)[C@H](CC(N)=O)NC(=O)[C@H](CCCCN)NC(=O)[C@H](CCCCN)NC(=O)CNC(=O)[C@H](CCCCN)NC(=O)[C@H](CCC(N)=O)NC(=O)[C@H](C)NC(=O)[C@H](CC(C)C)NC(=O)[C@H](CC(C)C)NC(=O)[C@H](Cc1c[nH]c2ccccc12)NC(=O)[C@H](CC(N)=O)NC(=O)[C@@H](NC(=O)[C@H](Cc1ccccc1)NC(=O)[C@H](CC(=O)O)NC(=O)[C@H](CCC(N)=O)NC(=O)[C@H](CCC(N)=O)NC(=O)[C@H](Cc1c[nH]cn1)NC(=O)[C@@H](NC(=O)[C@H](CCCCN)NC(=O)[C@H](CC(=O)O)NC(=O)[C@H](CCSC)NC(=O)[C@H](C)NC(=O)[C@@H](NC(=O)C1(NC(=O)[C@H](Cc2ccc(O)cc2)NC(=O)[C@H](CC(=O)O)NC(=O)[C@H](CO)NC(=O)[C@@H](NC(=O)[C@H](Cc2ccccc2)NC(=O)[C@@H](NC(=O)CNC(=O)[C@H](CCC(=O)O)NC(=O)[C@H](C)NC(=O)[C@@H](N)Cc2ccc(O)cc2)[C@@H](C)O)[C@@H](C)CC)CCCC1)[C@@H](C)CC)[C@@H](C)CC)C(C)C)[C@@H](C)CC)[C@@H](C)O)C(=O)O` [Example 40, [A5c^11, Lys^43(N—C(O)—(CH2)14—CH3)]hGIP(1-43)-OH], the half-life at 0.1 mg/ml in data set [1] was 17.2 h; in data set [2], 19.3 h.
For `CCCCCCCCCCCCCCCC(=O)NCCC[C@H](NC(=O)CNC(=O)[C@H](CCCCN)NC(=O)[C@H](CCC(N)=O)NC(=O)[C@H](C)NC(=O)[C@H](CC(C)C)NC(=O)[C@H](CC(C)C)NC(=O)[C@H](Cc1c[nH]c2ccccc12)NC(=O)[C@H](CC(N)=O)NC(=O)[C@@H](NC(=O)[C@H](Cc1ccccc1)NC(=O)[C@H](CC(=O)O)NC(=O)[C@H](CCC(N)=O)NC(=O)[C@H](CCC(N)=O)NC(=O)[C@H](Cc1c[nH]cn1)NC(=O)[C@@H](NC(=O)[C@H](CCCCN)NC(=O)[C@H](CC(=O)O)NC(=O)[C@H](CCSC)NC(=O)[C@H](C)NC(=O)[C@@H](NC(=O)C1(NC(=O)[C@H](Cc2ccc(O)cc2)NC(=O)[C@H](CC(=O)O)NC(=O)[C@H](CO)NC(=O)[C@@H](NC(=O)[C@H](Cc2ccccc2)NC(=O)[C@@H](NC(=O)CNC(=O)[C@H](CCC(=O)O)NC(=O)[C@H](C)NC(=O)[C@@H](N)Cc2ccc(O)cc2)[C@@H](C)O)[C@@H](C)CC)CCCC1)[C@@H](C)CC)[C@@H](C)CC)C(C)C)C(=O)N[C@@H](CCCCN)C(=O)N[C@@H](CC(N)=O)C(=O)N[C@@H](CC(=O)O)C(=O)N[C@@H](Cc1c[nH]c2ccccc12)C(=O)N[C@@H](CCCCN)C(=O)N[C@@H](Cc1c[nH]cn1)C(=O)N[C@@H](CC(N)=O)C(=O)N[C@H](C(=O)N[C@H](C(=O)N[C@@H](CCC(N)=O)C(=O)N[C@@H](Cc1c[nH]cn1)C(=O)O)[C@@H](C)O)[C@@H](C)CC` [Example 41, [A5c^11, Orn^32(N—C(O)—(CH2)14—CH3), His^43]hGIP(1-43)-OH], the results for the half-life at 0.1 mg/ml in data set [1] and in data set [2] were 6.6 h and 22.9 h, respectively.
Turning to `CCCCCCCCCCCCCCCC(=O)NCCC[C@H](NC(=O)[C@H](CCCCN)NC(=O)CNC(=O)[C@H](CCCCN)NC(=O)[C@H](CCC(N)=O)NC(=O)[C@H](C)NC(=O)[C@H](CC(C)C)NC(=O)[C@H](CC(C)C)NC(=O)[C@H](Cc1c[nH]c2ccccc12)NC(=O)[C@H](CC(N)=O)NC(=O)[C@@H](NC(=O)[C@H](Cc1ccccc1)NC(=O)[C@H](CC(=O)O)NC(=O)[C@H](CCC(N)=O)NC(=O)[C@H](CCC(N)=O)NC(=O)[C@H](Cc1c[nH]cn1)NC(=O)[C@@H](NC(=O)[C@H](CCCCN)NC(=O)[C@H](CC(=O)O)NC(=O)[C@H](CCSC)NC(=O)[C@H](C)NC(=O)[C@@H](NC(=O)C1(NC(=O)[C@H](Cc2ccc(O)cc2)NC(=O)[C@H](CC(=O)O)NC(=O)[C@H](CO)NC(=O)[C@@H](NC(=O)[C@H](Cc2ccccc2)NC(=O)[C@@H](NC(=O)CNC(=O)[C@H](CCC(=O)O)NC(=O)[C@H](C)NC(=O)[C@@H](N)Cc2ccc(O)cc2)[C@@H](C)O)[C@@H](C)CC)CCCC1)[C@@H](C)CC)[C@@H](C)CC)C(C)C)C(=O)N[C@@H](CC(N)=O)C(=O)N[C@@H](CC(=O)O)C(=O)N[C@@H](Cc1c[nH]c2ccccc12)C(=O)N[C@@H](CCCCN)C(=O)N[C@@H](Cc1c[nH]cn1)C(=O)N[C@@H](CC(N)=O)C(=O)N[C@H](C(=O)N[C@H](C(=O)N[C@@H](CCC(N)=O)C(=O)N[C@@H](Cc1c[nH]cn1)C(=O)O)[C@@H](C)O)[C@@H](C)CC` [Example 42, [A5c^11, Orn^33(N—C(O)—(CH2)14—CH3), His^43]hGIP(1-43)-OH], the values for the half-life at 0.1 mg/ml in data set [1] and in data set [2] were 6.3 h and 28.3 h, respectively.
On to “H-YAEGTF[Ac6c]SDYSIAMDKIHQQDFVNWLLAQKGKKN[Orn](Myristoyl)WKHNITQ-OH [Example 18, [A6c^7, Orn^35(N—C(O)—(CH2)12—CH3)]hGIP(1-42)-OH]”, for which the half-life at 0.1 mg/ml was 7.3 h in data set [1] and 16.7 h in data set [2].
On to “YAEGTFISDYSI[Aib]MDKIHQQDFVNWLLAQKGKKNDWKHNITQW-OH [Example 12, (Aib^13, Trp^43)hGIP(1-43)-OH]”, for which the half-life at 0.1 mg/ml is 6.9 h in data set [1] and 2.1 h in data set [2].
For “YAEGTFISDYSI[Aib][Nle]DKIHQQDFVNWLLAQKGKKNDWKHNITQF-OH [Example 9, (Aib^13, Nle^14, Phe^43)hGIP(1-43)-OH]”, the figures for the half-life at 0.1 mg/ml in data set [1] and in data set [2] were 6.9 h and 1.3 h, respectively.
“YAEGTFISDY[Ac5c]IAMDKIHQQDFVNWLLAQKGCKNDWKHNI[Ac5c]Q-NH2 [Example 31, (A5c^11, 41, Cys^32)hGIP(1-42)-NH2]”: the half-life at 0.1 mg/ml in data set [1] was 26.6 h; in data set [2], 16.3 h.
“YAEGTFISDY[Ac5c]IAMDKIHQQDFVNWLLAQKGKKNDWKHNITQA-OH [Example 8, (A5c^11, Ala^43)hGIP(1-43)-OH]”: the half-life at 0.1 mg/ml in data set [1] is 7.4 h; in data set [2], 2.3 h.
Take “YAEGTFISDY[Ac5c]IAMDKIHQQDFVNWLLAQKGKKNDWKHNITQT-OH [Example 10, (A5c^11, Thr^43)hGIP(1-43)-OH]”: the half-life at 0.1 mg/ml in data set [1] is 7.9 h; in data set [2] it was 2.1 h.
As for “YAEGTFISDY[Ac5c]IAMDKIHQQDFVNWLLAQKGKKNDWKHNITQ[12Ado]-OH [Example 13, (A5c^11, Ado^43)hGIP(1-43)-OH]”, the half-life at 0.1 mg/ml in data set [1] was 13.1 h; in data set [2], 18.8 h.
As to “YAEGTFISDY[Ac5c]IAMDKIHQQDFVNWLLAQKGKKNDWKHNI[Ac5c]QC-NH2 [Example 33, (A5c^11, 41, Cys^43)hGIP(1-43)-NH2]”, the half-life at 0.1 mg/ml is 15.8 h in data set [1] and 6.5 h in data set [2].
Regarding “YAEGTFISDY[Ac6c]IA[Ac6c]DKIHQQDFVNWLLAQKGKKNDWKHNI[Ac6c]Q-OH [Example 11, (A6c^11, 14, 41)hGIP(1-42)-OH]”, the half-life at 0.1 mg/ml in data set [1] is 13.1 h; in data set [2], 8.6 h.
In the same order, the values of “YAEGTFISDY[Ac6c]IA[Ac6c]DKIHQQDFVNWLLAQKGKKNDWKHN[Ac6c]TQ-OH [Example 14, (A6c^11, 14, 40)hGIP(1-42)-OH]” are 11.6 h and 4.8 h.
As for “YAEGTF[Ac6c]SDYSIAMDKIHQQDFVNWLLAQKGKKNDWKHNI[Ac6c]Q-OH [Example 16, (A6c^7, 41)hGIP(1-42)-OH]”, the half-life at 0.1 mg/ml was 6.5 h in data set [1] and 1.3 h in data set [2].
As to “YAEGTF[Ac6c]SDYSIA[Nle]DKIHQQDFVNWLLAQKGKKNDWKHNI[Ac6c]Q-OH [Example 17, (A6c^7, 41, Nle^14)hGIP(1-42)-OH]”, the half-life at 0.1 mg/ml was 6.3 h in data set [1] and 1.9 h in data set [2].

The values above are taken from patent publication US9072703B2 (Ipsen Pharma S.A.S., priority 2008, dated 2015).
